Laboratory results taken from patent US11716994B2, “Combinations of Yersinia entomophaga and pesticides or other substances” (priority 2017, dated 2023).
Where “and” joins values, the source holds several entries; their conditions need not be identical. Equal values may be shown once. Read-outs that look alike come from different tables or passages of the source.

What was measured:
corn earworm = assay: Leaf disk mortality assay, Y. entomophaga cells with chemical insecticides; assay type: in vivo; parameters: mortality: dose or concentration left out as unconfirmed; details: for % Mort. Chem. / LT50 Chem.: corn earworm
Procedure: (§1) 50 μl suspensions of either acetone (controls and Y. entomophaga alone treatments) or of thiodicarb (Sigma 34375) at a concentration of 140 mg/L in acetone were then dropped onto each cabbage disk. These were set to dry for 1 hr. After the disks had dried, one 2nd instar corn earworm was added to each disk. A total of 12 insects were evaluated for each treatment.
as §1, with “chlorantraniliprole” for “thiodicarb”, “32510)” for “34375)”, “18” for “140”, “24” for “12”

tobacco budworm [1] = assay: whole plant or invertebrate; details: Heliothis virescens, foliar
Yersinia entomophaga = assay: CFU counts after exposure of Yersinia entomophaga to insecticides; assay type: cell-based; details: 1 hour contact
Excerpt: To test combinations of Yersinia entomophaga and pesticides for their ability to produce a pesticidal effect, or an effect on plant growth or yield, we first put various insecticides in contact with Yersinia to identify insecticides that had minimal toxicity to Yersinia entomophaga. The logic was that, if Yersinia entomophaga is to function well in combination with a chemical insecticide, the chemical insecticide would ideally have low or no effect on the ability of Yersinia entomophaga to survive, grow and/or to function.
To perform this study, we selected amounts of various insecticides based on the percent of the specific insecticide in the insecticide composition obtained from a manufacturer. We also considered the application rate of the particular insecticide, as recommended by the manufacturer. […] Generally, the 1× amount was considered possibly the lowest amount of insecticide that may be considered as an effective amount for use in the combinations disclosed herein. For each insecticide, we also used a higher amount of insecticide (generally a 5× or 10× amount).
The 1× and 5×/10× amounts of each insecticide were added to tubes along with 1 ml of ethyl acetate. The tubes were mixed until the insecticides dissolved. The tubes were left open in a fume hood overnight to allow the ethyl acetate to evaporate. The insecticide remained in the tubes, as a solid coat on the interior surface of the tubes.
A growing culture of Yersinia entomophaga, grown in LB medium, was diluted and 1 ml of the diluted culture was added to each tube containing the dried insecticide. The tubes were mixed and then left on the bench top for 1 hour. Then, 100 μl from each tube was plated onto LB plates in triplicate in CFU assays. Plates were incubated at 25° C. for 48 hours and colonies were counted.

cabbage looper [2] = system: cabbage looper
tobacco budworm [3] = details: for LT50 (95% confidence intervals) in days: in vivo; for % Mort. Chem. / LT50 Chem.: tobacco budworm; for % Mort. Chem.: 1 DAT
cabbage looper [4] = assay: whole plant or invertebrate; details: Trichoplusia ni, foliar
Colorado potato beetle [5] = assay: Tomato leaf disk mortality assay, Y. entomophaga cells with chemical insecticides; details: for mortality at 0.56 µg/mL: Leptinotarsa decemlineata, in Solanum lycopersicum, foliar
Colorado potato beetle [6] = details: for LT50 (95% confidence intervals): 3rd instar Colorado potato beetle, O43NEW undiluted filtrate, alone or combined
Procedure: (§3) To produce cell free filtrates, cultures of Yersinia entomophaga grown in LB medium were centrifuged at 11,448 (g) for 10 minutes. The supernatant was decanted from the centrifuged pellet and filtered through a 0.22 μm filter. Assays were performed to determine concentrations of Yen-TC (toxin complex) using ELISA, and chitinase by measuring chitinase activity on specific substrates. […] This was done to estimate relative potency of the cell free filtrates. Insects were first pre-screened with a range of dilutions of cell free filtrates to select a concentration that provided moderate activity. […] Based on these initial screens, undiluted cell free filtrate was used for cabbage looper, fall armyworm, black cutworm, and Colorado potato beetle. […] In each of the Examples below, this is expressed as 1%.
Tomato leaf disks were dipped in either acetone (controls and Y. entomophaga alone treatments) or thiacloprid (Sigma 37905) at 1 mg/L in acetone. These were set to dry for 1 hr. […] After the tomato disks had dried for 1 hr, a single 3rd instar Colorado potato beetle was added to each individual cabbage disk. A total of 20 insects were evaluate for each treatment. Insects were observed daily and scored as live or dead.

western flower thrips = assay: Leaf disk mortality assay, Y. entomophaga cells with chemical insecticides; assay type: in vivo; details: for mortality at 100 µg/mL: Frankliniella occidentalis, foliar; for mortality at 100 µg/mL / LT50 (95% confidence intervals) in days: adults, imidacloprid 100 mg/L; for % Mort. Chem.: Imidacloprid 100 mg/L
Procedure: These were set to dry for 1 hr. After the disks had dried, two were placed in individual cups and 12 adult western flower thrips were added. This experiment was repeated and a total of 24 insects were evaluated for each treatment.

diamondback moth [7] = assay: whole plant or invertebrate; details: spinosad […]
Excerpt: (§2) These were set to dry for 1 hr.
as §2
These were set to dry for 1 hr. Cabbage disks were then dipped in either 1% Luria broth (LB) media solution (controls and thiacloprid alone treatments) or in 1% cell free filtrate from a culture Y. entomophaga isolate O24G3R (Y. entomophaga alone or in combination with thiacloprid treatments).

cabbage looper [8] = details: spinosad 7.5 mg/L
Procedure: as §3
Cabbage leaf disks were dipped in either acetone (controls and Y. entomophaga alone treatments) or novaluron (Sigma 32419) at 1.0 mg/L in acetone. These were set to dry for 1 hr. […] After the cabbage disks had dried for 1 hr, a single 3rd instar cabbage looper was added to each individual cabbage disk. A total of 20 insects were evaluate for each treatment. Insects were observed daily and scored as live or dead.

fall armyworm [9] = assay: Leaf disk mortality assay, Y. entomophaga cells with chemical insecticides
Colorado potato beetle [10] = details: in vivo
fall armyworm [11] = details: in vivo
diamondback moth [12] = details: in vivo
diamondback moth [13] = assay: Leaf disk mortality assay, Y. entomophaga cells with chemical insecticides; details: in vivo
[14] = Chlorantraniliprole alone 18 mg/L
[15] = 24 h, read-out: % Mortality (1DAT)
[16] = 48 h, read-out: % Mortality (2DAT)
[17] = 3rd instar, spinosad 25 mg/L, isolate O24G3R 1×10^5 cfu/mL
[18] = 3rd instar, spinosad 25 mg/L, isolate O348UX 1×10^5 cfu/mL

CNC(=O)c1cc(Cl)cc(C)c1NC(=O)c1cc(Br)nn1-c1ncccc1Cl [Chlorantraniliprole]
LT50 (95% confidence intervals) in days (corn earworm; 2nd instar, chlorantraniliprole 18 mg/L, isolate O43NEW 1×10^5 cfu/mL): 3.29 (2.85-3.77) days | mortality at 18 µg/mL (corn earworm; Helicoverpa zea, foliar, 24 h, 2nd instar, chlorantraniliprole 18 mg/L, isolate O43NEW 1×10^5 cfu/mL, read-out: % Mortality (1DAT)): 0% | mortality at 18 µg/mL (corn earworm; Helicoverpa zea, foliar, 48 h, 2nd instar, chlorantraniliprole 18 mg/L, isolate O43NEW 1×10^5 cfu/mL, read-out: % Mortality (2DAT)): 0% | % Mort. Chem. (corn earworm; Chlorantraniliprole 18 mg/L, 2 DAT (row with O43NEW 1 × 10^3)): 0% | % Mort. Chem. (corn earworm; Chlorantraniliprole 18 mg/L, 2 DAT (row with O43NEW 1 × 10^5)): 0% | LT50 Chem. (corn earworm; [14]): 3.29 days and 3.44 days | mortality at 18 µg/mL (tobacco budworm [1]; [15]): 8% | mortality at 18 µg/mL (tobacco budworm [1]; [16]): 25% | Average CFU (Yersinia entomophaga; 0.15 mg insecticide): 523 CFU | Average CFU (Yersinia entomophaga; 2.0 mg insecticide): 387 CFU | % Mort. Chem. (cabbage looper [2]; cabbage looper, Chlorantraniliprole 18 mg/L, 1 DAT): 8% | LT50 Chem. (cabbage looper [2]; cabbage looper, Chlorantraniliprole alone 18 mg/L): 2.39 days | % Mort. Chem. (cabbage looper [2]; in vivo): 38% | LT50 (95% confidence intervals) in days (cabbage looper [2]; in vivo): 2.39 (2.10-2.70) days | LT50 (95% confidence intervals) in days (tobacco budworm [3]): 2.20 (1.91-2.53) days | % Mort. Chem. (tobacco budworm [3]; Chlorantraniliprole 18 mg/L): 8% | LT50 Chem. (tobacco budworm [3]; [14]): 2.20 days | mortality at 18 µg/mL (cabbage looper [4]; [15]): 8% | mortality at 18 µg/mL (cabbage looper [4]; [16]): 38%

O=[N+]([O-])NC1=NCCN1Cc1ccc(Cl)nc1 [Imidacloprid]
LT50 (95% confidence intervals) in days (Colorado potato beetle [5]; 4th instar larva, imidacloprid 0.56 mg/L, isolate O43NEW 1×10^7 cfu/mL): 20.38 (15.79-27.60) days | % Mort. Chem. (Colorado potato beetle [5]; Colorado potato beetle, Imidacloprid 0.56 mg/L, 10 DAT): 17% | LT50 Chem. (Colorado potato beetle [5]; Colorado potato beetle, Imidacloprid alone 0.56 mg/L): 20.38 days | mortality at 0.56 µg/mL (Colorado potato beetle [5]; 72 h, read-out: % Mortality (3DAT)): 0% | mortality at 0.56 µg/mL (Colorado potato beetle [5]; 240 h, read-out: % Mortality (10DAT)): 17% | mortality at 0.56 µg/mL (Colorado potato beetle [5]; 312 h, read-out: % Mortality (13DAT)): 7% | LT50 (95% confidence intervals) (Colorado potato beetle [6]; imidacloprid 0.56 mg/L): 18.03 days | LT50 Chem. (Colorado potato beetle [6]; Colorado potato beetle, imidacloprid 0.56 mg/L): 18.03 days | % Mort. Chem. (Colorado potato beetle [6]; Colorado potato beetle, imidacloprid 0.56 mg/L, 6 DAT): 5% | mortality at 100 µg/mL (western flower thrips; 24 h, isolate O333A4 1×10^5 cfu/mL, read-out: % Mortality (1DAT)): 16% | mortality at 100 µg/mL (western flower thrips; 48 h, isolate O43NEW 1×10^5 cfu/mL, read-out: % Mortality (2DAT)): 29% | LT50 (95% confidence intervals) in days (western flower thrips; isolate O43NEW 1×10^5 cfu/mL): 2.72 (2.40-3.08) days | LT50 (95% confidence intervals) in days (western flower thrips; isolate O333A4 1×10^5 cfu/mL): 2.72 (2.40-3.08) days | % Mort. Chem. (western flower thrips; western flower thrips, 2 DAT (row with O43NEW)): 29% | % Mort. Chem. (western flower thrips; western flower thrips, 2 DAT (row with O333A4)): 16% | LT50 Chem. (western flower thrips; western flower thrips, Imidacloprid alone 100 mg/L): 2.72 days

CS/C(C)=N\OC(=O)N(C)SN(C)C(=O)O/N=C(\C)SC [Thiodicarb]
LT50 (95% confidence intervals) in days (corn earworm; 2nd instar, thiodicarb 140 mg/mL, isolate O43NEW 1×10^7 cfu/mL): 2.02 (1.60-2.50) days | mortality (corn earworm; Helicoverpa zea, foliar, 24 h, 2nd instar, thiodicarb, isolate O43NEW 1×10^7 cfu/mL, read-out: % Mortality (1DAT)): 0% | % Mort. Chem. (corn earworm; Thiodicarb 140 mg/L, 1 DAT): 0% | % Mort. Chem. (corn earworm; Thiodicarb 140 mg/L, 2 DAT): 33% | LT50 Chem. (corn earworm; Thiodicarb alone 140 mg/L): 2.02 days | mortality at 140 µg/mL (tobacco budworm [1]; [15]): 25% | mortality at 140 µg/mL (tobacco budworm [1]; [16]): 50% | LT50 Chem. (cabbage looper [2]; cabbage looper, Thiodicarb alone 140 mg/L): 1.40 days | % Mort. Chem. (cabbage looper [2]; in vivo): 25% | LT50 (95% confidence intervals) (cabbage looper [2]; in vivo): 1.40 days | LT50 (95% confidence intervals) in days (tobacco budworm [3]): 1.98 (1.57-2.45) days | % Mort. Chem. (tobacco budworm [3]; Thiodicarb 140 mg/L): 25% | LT50 Chem. (tobacco budworm [3]; Thiodicarb alone 140 mg/L): 1.98 days | mortality at 140 µg/mL (cabbage looper [4]; [15]): 25% | mortality at 140 µg/mL (cabbage looper [4]; [16]): 50%

Spinosad
LT50 (95% confidence intervals) (diamondback moth [7]; 2nd instar diamondback moth, O43NEW filtrate 1%, alone or combined): 8.16 days | LT50 Chem. (diamondback moth [7]; Diamondback moth): 8.16 days | LT50 Chem. (Colorado potato beetle [5]; Colorado potato beetle, Spinosad alone […]): 6.01 days | LT50 (95% confidence intervals) in days (Colorado potato beetle [5]; in vivo): 6.01 (4.93-7.28) days | Average CFU (Yersinia entomophaga; 0.2 mg insecticide): 523 CFU | Average CFU (Yersinia entomophaga; 1.0 mg insecticide): 487 CFU | % Mortality (2DAT) (cabbage looper [8]; 3rd instar cabbage looper, O43NEW undiluted filtrate, alone or combined, 2 DAT, Abbott's corrected): 10% | % Mortality (5DAT) (cabbage looper [8]; 3rd instar cabbage looper, O43NEW undiluted filtrate, alone or combined, 5 DAT, Abbott's corrected): 25% | % Mortality (6DAT) (cabbage looper [8]; 3rd instar cabbage looper, O43NEW undiluted filtrate, alone or combined, 6 DAT, Abbott's corrected): 50% | % Mortality (8DAT) (cabbage looper [8]; 3rd instar cabbage looper, O43NEW undiluted filtrate, alone or combined, 8 DAT, Abbott's corrected): 55% | % Mortality (9DAT) (cabbage looper [8]; 3rd instar cabbage looper, O43NEW undiluted filtrate, alone or combined, 9 DAT, Abbott's corrected): 55% | LT50 Chem. (cabbage looper [8]; Cabbage Looper): 7.01 days | % Mort. Chem. (cabbage looper [8]; Cabbage Looper, 5 DAT): 25% | LT50 (95% confidence intervals) (Colorado potato beetle [6]; spinosad […]): 78.3 days | LT50 Chem. (Colorado potato beetle [6]; Colorado potato beetle, spinosad […]): 78.30 days | % Mortality (3DAT) (fall armyworm [9]; [17]): 80% | LT50 (95% confidence intervals) in days (fall armyworm [9]; [17]): 2.43 (2.08-2.84) days | % Mortality (3DAT) (fall armyworm [9]; [18]): 80% | LT50 (95% confidence intervals) in days (fall armyworm [9]; [18]): 2.43 (2.08-2.84) days | % Mort. Chem. (fall armyworm [9]; fall armyworm, Spinosad 25 mg/L, 3 DAT (row with 024G3R)): 80% | % Mort. Chem. (fall armyworm [9]; fall armyworm, Spinosad 25 mg/L, 3 DAT (row with O348UX)): 80% | LT50 Chem. (fall armyworm [9]; fall armyworm, Spinosad alone 25 mg/L): 4.09 days and 2.43 days | % Mort. Chem. (fall armyworm [9]; in vivo): 40% | LT50 (95% confidence intervals) in days (fall armyworm [9]; in vivo): 4.09 (3.67-4.55) days | % Mortality (3DAT) (Colorado potato beetle [10]): 15% | % Mortality (4DAT) (Colorado potato beetle [10]): 20% | % Mortality (5DAT) (Colorado potato beetle [10]): 40% | % Mortality (3DAT) (fall armyworm [11]): 40% | % Mortality (2DAT) (diamondback moth [12]): 0% | % Mortality (3DAT) (diamondback moth [12]): 10% | % Mortality (4DAT) (diamondback moth [12]): 15% | % Mortality (7DAT) (diamondback moth [12]): 40% | % Mortality (9DAT) (diamondback moth [12]): 39% | % Mortality (11DAT) (diamondback moth [12]): 65% | LT50 (95% confidence intervals) (diamondback moth [13]): 8.16 days | LT50 Chem. (diamondback moth [13]): 8.16 days
